Assay results: patent US7238779B2, “Acyl CoA:cholesterol acyltransferase (ACAT-2)” (The Regents of the University of California, priority 1998, dated 2007)

system: ACAT-2 protein; test: inhibition of ACAT-2 protein activity; format: biochemical; conditions: general statement, concentration not given

SMILES | activity of the ACAT-2 protein is inhibited by the compound
CC(C)c1cc(C(C)C)c(CC(=O)NS(=O)(=O)Oc2c(C(C)C)cccc2C(C)C)c(C(C)C)c1 [CI-1011] | inhibited
O=C(O)c1cc[c]([Hg][OH])cc1 [PHMB] | inhibited
CC(C)c1cccc(C(C)C)c1NC(=O)NCC1(c2ccc(N(C)C)cc2)CCCC1.Cl [PD 132301-2] | inhibited
CC(=O)[C@H]1CC[C@H]2[C@@H]3CCC4=CC(=O)CC[C@]4(C)[C@H]3CC[C@]12C [progesterone] | inhibited
CCCCCCCCCCC(C)(C)C(=O)Nc1c(OC)cc(OC)cc1OC [CI-976] | inhibited
O=S(=O)(F)Cc1ccccc1 [PMSF] | inhibited
